ChEMBL document CHEMBL1156728, “Allele-specific inhibition of divergent protein tyrosine phosphatases with a single small molecule” (Bioorg Med Chem, 2008)

Experiments:
[1] = Inhibition of CCPGCC hexapeptide insertion containing PTPH1-816 mutant
[2] = Inhibition of CCPGCC hexapeptide insertion containing PTPH1-816 mutant at 1 uM; conditions: TDE = time-dependent effect
[3] = Inhibition of CCPGCC hexapeptide insertion containing TCPTP-187 mutant
[4] = Inhibition of CCPGCC hexapeptide insertion containing FAP1-2364 mutant
[5] = Inhibition of CCPGCC hexapeptide insertion containing PTPalpha-406 mutant at 1 uM; conditions: TDE = time-dependent effect
[6] = Inhibition of CCPGCC hexapeptide insertion containing PTP1B-186 mutant
[7] = Inhibition of CCPGCC hexapeptide insertion containing PTP-PEST-204 mutant
[8] = Inhibition of CCPGCC hexapeptide insertion containing PTPalpha-406 mutant
[9] = Inhibition of CCPGCC hexapeptide insertion containing HePTP-211 mutant

SMILES: O=C(O)c1ccccc1-c1c2ccc(=O)c([As]3SCCS3)c-2oc2c([As]3SCCS3)c(O)ccc12
- Ki [1]: 0.038 µM
- Activity [2]: tde
- Ki [3]: 0.017 µM
- Ki [4]: 0.37 µM
- Activity [5]: tde
- Ki [6]: 0.046 µM
- Ki [7]: 0.053 µM
- Ki [8]: 0.039 µM
- Ki [9]: 0.089 µM
